Data on 15 molecules can be found in patent publication US11339171B2, “MDM2 inhibitors” (Gan & Lee Pharmaceuticals, priority 2017, dated 2022).

The subject of test [1] is human osteosarcoma cell line SJSA-1. The test is described as follows: Inhibition of proliferation of human osteosarcoma cell line SJSA-1 (DAPI staining, In Cell Analyzer). The following applies: for inhibitory effect on human osteosarcoma cell line SJSA-1 compared with positive control compound HDM201: labels are Example numbers, the compounds with S-configuration are meant; for IC50: Homo sapiens, SJSA-1, 72 h, read-out: IC50 (nM), inhibitory activity on proliferation of human osteosarcoma cell line SJSA-1, SJSA-1, incubated 72 h.
Experimental: 2.2 Experiment Preparation:
2.2.1 Preparation of a culture medium for human osteosarcoma cell line SJSA-1: RPMI1640+10% FBS+1% penicillin/streptomycin
2.2.2 Preparation of a test compound solution:
a. the test compound solution with a certain concentration was taken, and diluted with the culture medium to obtain a compound solution with a final concentration of 20 μM;
b. 200 μL of a culture medium containing 0.2% DMSO (dimethyl sulfoxide) was added into H2-H10 of a 96-well plate; 300 μl of the above solution was added into H1; and
c. 100 μL was taken out from well H1, added into H2, and mixed well; then 100 μl of the resultant solution was taken and added into H3, and dilution was carried out in sequence until H9 to obtain the 3-fold serial dilution of the test compound.
2.3 Experimental Process:
2.3.1 SJSA-1 cells were inoculated into a 96-well cell plate with black transparent bottom at 4000 cells/100 μl/well, and cultured overnight at 37° C.;
2.3.3 Fixation: the cell plate was taken out, the culture medium was removed, and 50 μL of 4% paraformaldehyde solution was added to each well to fix for 10 min;
2.3.4 50 μl of 0.1 M glycine was added to neutralize for 10 min;
2.3.5 Washing was performed with 1×PBS (phosphate buffer solution pH7.2) twice;
2.3.6 Permeabilization: 50 μL of 0.2% TritonX-100 (Triton) was added per well, and permeabilization was carried out at room temperature for 10 min;
2.3.7 Washing was performed with 1×PBS (phosphate buffer solution pH7.2) twice;
2.3.9 Washing was performed with 1×PBS (phosphate buffer solution pH7.2) for three times; and
2.3.10 Scanning and analysis were performed by In cell analyzer.
The inhibition rate of each compound at each concentration point was calculated according to the following formula, and curve fitting was performed by GraphPad Prism 6.0 software to obtain the IC50 value.

A further test concerns the target T1, MDM2 (Homo sapiens, UniProt Q00987).
T1 construct: made in house
The test is described as follows: Inhibition test of MDM2-P53 (GST-MDM2, Biotin-P53, Anti-GST-Tb, SA-XL665). The following applies: for inhibitory effect on MDM2 compared with positive control compound HDM201: labels are Example numbers, the compounds with S-configuration are meant. It counts as binding. In a few lines: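 Binding was measured by TR-FRET with GST-MDM2 at 4 nM final in PBS with 0.1% BSA, 5 mM DTT and 1 mM AEBSF. Compounds were tested as twelve-point 5-fold dilutions and incubated with the detection mix for 90 min at 25 °C with shaking before plate-reader reading and curve fitting.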

T1 sequence (Q00987 whole entry): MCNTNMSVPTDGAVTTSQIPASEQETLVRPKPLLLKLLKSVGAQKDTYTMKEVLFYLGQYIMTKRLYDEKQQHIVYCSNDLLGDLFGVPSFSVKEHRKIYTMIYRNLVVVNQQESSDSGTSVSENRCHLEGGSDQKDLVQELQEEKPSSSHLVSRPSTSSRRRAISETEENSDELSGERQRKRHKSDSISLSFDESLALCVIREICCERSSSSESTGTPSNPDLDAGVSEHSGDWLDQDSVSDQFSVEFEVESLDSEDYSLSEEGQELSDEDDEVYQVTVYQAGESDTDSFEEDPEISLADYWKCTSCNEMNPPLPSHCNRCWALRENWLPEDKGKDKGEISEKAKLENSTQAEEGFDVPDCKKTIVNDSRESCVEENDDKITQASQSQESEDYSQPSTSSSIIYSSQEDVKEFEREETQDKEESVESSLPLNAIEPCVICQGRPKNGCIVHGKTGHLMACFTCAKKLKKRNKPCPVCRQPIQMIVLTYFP

As to `COc1cc(OC(C)C)ncc1-c1nc2c(n1C(C)C)C1(C(=O)Nc3cc(Cl)ccc31)N(c1cc(Cl)cnc1C)C2=O` (stereo not drawn) [Example 137, 6-chloro-5′-(5-chloro-2-methylpyridin-3-yl)-2′-(6-isopropoxy-4-methoxypyridin-3-yl)-3′-isopropyl-3′H-spiro[dihydroindole-3,4′-pyrrolo[3,4-d]imidazole]-2,6′(5′H)-dione], the “inhibitory effect on human osteosarcoma cell line SJSA-1 compared with positive control compound HDM201” value in test [1] was “better”. Moreover, the “inhibitory effect on MDM2 compared with positive control compound HDM201” value at MDM2 is “better”.
On to `COc1cc(C(F)(F)F)ncc1-c1nc2c(n1C(C)C)C1(C(=O)Nc3cc(Cl)ccc31)N(c1cc(Cl)ccc1C)C2=O` (stereo not drawn) [Example 138, 6-chloro-5′-(5-chloro-2-methylphenyl)-3′-isopropyl-2′-(4-methoxy-6-(trifluoromethyl)pyridin-3-yl)-3′H-spiro[dihydroindole-3,4′-pyrrolo[3,4-d]imidazole]-2,6′(5′H)-dione], for which, in test [1], the “inhibitory effect on human osteosarcoma cell line SJSA-1 compared with positive control compound HDM201” value is recorded as “better”. Further, at MDM2, the “inhibitory effect on MDM2 compared with positive control compound HDM201” value is “better”.
`CCOc1cc(OC)c(-c2nc3c(n2C(C)C)C2(C(=O)Nc4cc(Cl)ccc42)N(c2cc(F)cc(Cl)c2)C3=O)cn1` (stereo not drawn) [Example 139, 6-chloro-5′-(3-chloro-5-fluorophenyl)-2′-(6-ethoxy-4-methoxypyridin-3-yl)-3′-isopropyl-3′H-spiro[dihydroindole-3,4′-pyrrolo[3,4-d]imidazole]-2,6′(5′H)-dione]: the “inhibitory effect on human osteosarcoma cell line SJSA-1 compared with positive control compound HDM201” value in test [1] was “better”. The “inhibitory effect on MDM2 compared with positive control compound HDM201” value against MDM2 was “better”.
`COc1cc(C2CC2)ncc1-c1nc2c(n1C(C)C)C1(C(=O)Nc3cc(Cl)ccc31)N(c1cc(Cl)cnc1C)C2=O` (stereo not drawn) [Example 143, 6-chloro-5′-(5-chloro-2-methylpyridin-3-yl)-2′-(6-cyclopropyl-4-methoxypyridin-3-yl)-3′-isopropyl-3′H-spiro[dihydroindole-3,4′-pyrrolo[3,4-d]imidazole]-2,6′(5′H)-dione]: in test [1], the “inhibitory effect on human osteosarcoma cell line SJSA-1 compared with positive control compound HDM201” value is “better”. Also, at MDM2, the “inhibitory effect on MDM2 compared with positive control compound HDM201” value is listed as “better”.
For the molecule `COc1cc(OCC(F)F)ncc1-c1nc2c(n1C(C)C)C1(C(=O)Nc3cc(Cl)ccc31)N(c1cc(Cl)ccc1C)C2=O` (stereo not drawn) [Example 153, 6-chloro-5′-(5-chloro-2-methylphenyl)-2′-(6-(2,2-difluoroethoxy)-4-methoxypyridin-3-yl)-3′-isopropyl-3′H-spiro[dihydroindole-3,4′-pyrrolo[3,4-d]imidazole]-2,6′(5′H)-dione], the “inhibitory effect on human osteosarcoma cell line SJSA-1 compared with positive control compound HDM201” value in test [1] is recorded as “better”. Besides, on MDM2, the “inhibitory effect on MDM2 compared with positive control compound HDM201” value is given as “better”.
Consider `COc1cc(C)ncc1-c1nc2c(n1C(C)C)C1(C(=O)Nc3cc(Cl)ccc31)N(c1cc(Cl)ccc1C)C2=O` (stereo not drawn) [Example 154, 6-chloro-5′-(5-chloro-2-methylphenyl)-3′-isopropyl-2′-(4-methoxy-6-methylpyridin-3-yl)-3′H-spiro[dihydroindole-3,4′-pyrrolo[3,4-d]imidazole]-2,6′(5′H)-dione], for which the “inhibitory effect on human osteosarcoma cell line SJSA-1 compared with positive control compound HDM201” value in test [1] is “better”. Moreover, the “inhibitory effect on MDM2 compared with positive control compound HDM201” value on MDM2 is reported as “better”.
As for `COc1cc(N(C)C)ncc1-c1nc2c(n1C(C)C)C1(C(=O)Nc3cc(Cl)ccc31)N(c1cc(Cl)cnc1C)C2=O` (stereo not drawn) [Example 155, 6-chloro-5′-(5-chloro-2-methylpyridin-3-yl)-2′-(6-(dimethylamino)-4-methoxypyridin-3-yl)-3′-isopropyl-3′H-spiro[dihydroindole-3,4′-pyrrolo[3,4-d]imidazole]-2,6′(5′H)-dione], the “inhibitory effect on human osteosarcoma cell line SJSA-1 compared with positive control compound HDM201” value in test [1] is listed as “better”. In addition, the “inhibitory effect on MDM2 compared with positive control compound HDM201” value against MDM2 is “better”.
With `COc1cc(C(C)C)ncc1-c1nc2c(n1C(C)C)C1(C(=O)Nc3cc(Cl)ccc31)N(c1cc(Cl)ccc1C)C2=O` (stereo not drawn) [Example 164, 6-chloro-5′-(5-chloro-2-methylphenyl)-3′-isopropyl-2′-(6-isopropyl-4-methoxypyridin-3-yl)-3′H-spiro[dihydroindole-3,4′-pyrrolo[3,4-d]imidazole]-2,6′(5′H)-dione], the “inhibitory effect on human osteosarcoma cell line SJSA-1 compared with positive control compound HDM201” value in test [1] is given as “better”. On MDM2, the “inhibitory effect on MDM2 compared with positive control compound HDM201” value is given as “better”.
For `COc1cc(C(C)C)ncc1-c1nc2c(n1C(C)C)C1(C(=O)Nc3cc(Cl)ccc31)N(c1cc(Cl)cnc1C)C2=O` (stereo not drawn) [Example 166, 6-chloro-5′-(5-chloro-2-methylpyridin-3-yl)-3′-isopropyl-2′-(6-isopropyl-4-methoxypyridin-3-yl)-3′H-spiro[dihydroindole-3,4′-pyrrolo[3,4-d]imidazole]-2,6′(5′H)-dione], in test [1], the “inhibitory effect on human osteosarcoma cell line SJSA-1 compared with positive control compound HDM201” value was “better”. On MDM2, the “inhibitory effect on MDM2 compared with positive control compound HDM201” value was “better”.
As to `COc1cc(C2CC2)ncc1-c1nc2c(n1C(C)C)C1(C(=O)Nc3cc(Cl)ccc31)N(c1cc(F)cc(Cl)c1)C2=O` (stereo not drawn) [Example 176, 6-chloro-5′-(3-chloro-5-fluorophenyl)-2′-(6-cyclopropyl-4-methoxypyridin-3-yl)-3′-isopropyl-3′H-spiro[dihydroindole-3,4′-pyrrolo[3,4-d]imidazole]-2,6′(5′H)-dione], the “inhibitory effect on human osteosarcoma cell line SJSA-1 compared with positive control compound HDM201” value in test [1] is “better”. Also, the “inhibitory effect on MDM2 compared with positive control compound HDM201” value against MDM2 is given as “better”.
As for `COc1nc(C#N)ncc1-c1nc2c(n1C(C)C)C1(C(=O)Nc3cc(Cl)ccc31)N(c1cc(Cl)ccc1C)C2=O` (stereo not drawn) [Example 179], the IC50 was determined as 52.7 nM in test [1] and 4.27 nM on MDM2.
For `COc1ncc(-c2nc3c(n2C(C)C)[C@]2(C(=O)Nc4cc(Cl)ccc42)N(c2cccc(Cl)c2)C3=O)c(OC)n1` [Example R-1, (R)-6-chloro-5′-(3-chlorophenyl)-2′-(2,4-dimethoxypyrimidin-5-yl)-3′-isopropyl-3′H-spiro[dihydroindole-3,4′-pyrrolo[3,4-d]imidazole]-2,6′(5′H)-dione] the same measures were 16700 nM and 618 nM.
For `COc1ncc(-c2nc3c(n2C(C)C)[C@]2(C(=O)Nc4cc(Cl)ccc42)N(c2cc(Cl)ccc2C)C3=O)c(OC)n1` [Example R-2, (R)-6-chloro-5′-(5-chloro-2-methylphenyl)-2′-(2,4-dimethoxypyrimidin-5-yl)-3′-isopropyl-3′H-spiro[dihydroindole-3,4′-pyrrolo[3,4-d]imidazole]-2,6′(5′H)-dione], the results for the IC50 (in test [1]; against MDM2) were 2770 nM and 117 nM, respectively.
The like results for `COc1ncc(-c2nc3c(n2C(C)C)[C@]2(C(=O)Nc4cc(Cl)ccc42)N(c2ccc(F)c(Cl)c2)C3=O)c(OC)n1` [Example R-3, (R)-6-chloro-5′-(3-chloro-4-fluorophenyl)-2′-(2,4-dimethoxypyrimidin-5-yl)-3′-isopropyl-3′H-spiro[dihydroindole-3,4′-pyrrolo[3,4-d]imidazole]-2,6′(5′H)-dione] were, in that order, 16300 nM and 1190 nM.
For `COc1cc(F)ccc1-c1nc2c(n1C(C)C)[C@]1(C(=O)Nc3cc(Cl)ccc31)N(c1cc(Cl)ccc1C)C2=O` [Example R-4, (R)-6-chloro-5′-(5-chloro-2-methylphenyl)-2′-(4-fluoro-2-methoxyphenyl)-3′-isopropyl-3′H-spiro[dihydroindole-3,4′-pyrrolo[3,4-d]imidazole]-2,6′(5′H)-dione] the same measures were 2190 nM and 132 nM.
